Laboratory results published in patent US7521442B2, “Cyclopropyl fused indolobenzazepine HCV NS5B inhibitors” (Bristol-Myers Squibb Company, priority 2006, dated 2009).
Like-named read-outs stand apart in the source and are kept apart here.

Tests used:
HCV replicon cells = assay: HCV replicon FRET assay; assay type: cell-based
Excerpt: FRET Assay Preparation. To perform the HCV FRET screening assay, 96-well cell culture plates were used. The FRET peptide (Anaspec, Inc.) (Taliani et al., Anal. Biochem. 1996, 240, 60-67) contains a fluorescence donor, EDANS, near one end of the peptide and an acceptor, DABCYL, near the other end. The fluorescence of the peptide is quenched by […] resonance energy transfer (RET) between the donor and the acceptor, but as the NS3 protease cleaves the peptide the products are released from RET quenching and the fluorescence of the donor becomes apparent. The assay reagent was made as follows: 5× cell Luciferase cell culture lysis reagent from Promega (#E153A) diluted to 1× with dH2O, NaCl added to 150 mM final, the FRET peptide diluted to 20 uM final from a 2 mM stock.
To prepare plates, HCV replicon cells, with or without a Renilla luciferase reporter gene, were trypsinized and placed into each well of a 96-well plate with titrated test compounds added in columns 3 through 12; columns 1 and 2 contained a control compound (HCV protease inhibitor), and the bottom row contained cells without compound. The plates were then placed in a CO2 incubator at 37° C.
Assays. Subsequent to addition of the test compounds described above (FRET Assay Preparation), at various times the plate was removed and Alamar blue solution (Trek Diagnostics, #00-100) was added per well as a measure of cellular toxicity. After reading in a Cytoflour 4000 instrument (PE Biosystems), plates were rinsed with PBS and then used for FRET assay by the addition of 30 ul of the FRET peptide assay reagent described above (FRET Assay Preparation) per well. The plate was then placed into the Cytoflour 4000 instrument which had been set to 340 excite/490 emission, automatic mode for 20 cycles and the plate read in a kinetic mode. Typically, the signal to noise using an endpoint analysis after the reads was at least three-fold. Alternatively, after Alamar blue reading, plates were rinsed with PBS, 50 ul of DMEM (high glucose) without phenol red was added and plates were then used for luciferase assay using the Promega Dual-Glo Luciferase Assay System.
Compound analysis was determined by quantification of the relative HCV replicon inhibition and the relative cytotoxicity values. To calculate cytoxicity values, the average Alamar Blue fluorescence signals from the control wells were set as 100% non-toxic. The individual signals in each of the compound test wells were then divided by the average control signal and multiplied by 100% to determine […]. To calculate the HCV replicon inhibition values, an average background value was obtained from the two wells containing the highest amount of HCV protease inhibitor at the end of the assay period. These numbers were similar to those obtained from naive Huh-7 cells.
The background numbers were then subtracted from the average signal obtained from the control wells and this number was used as 100% activity. The individual signals in each of the compound test wells were then divided by the averaged control values after background subtraction and multiplied by 100% to determine percent activity. EC50 values for a protease inhibitor titration were calculated as the concentration which caused a 50% reduction in FRET or luciferase activity. The two numbers generated for the compound plate, percent cytoxicity and percent activity were used to determine compounds of interest for further analysis.

[1] = target: T1, HCV NS5B RdRp genotype 1b (Hepatitis C virus genotype 1b, UniProt Q9WMX2); assay: Modified HCV NS5B RdRp enzyme assay (preincubation protocol); assay type: biochemical
T1 construct: The protein was expressed with an 18 amino acid C-terminal truncation to enhance the solubility; made in house; host or cells: E. coli BL21(DE3), pET21a
T1 sequence (Q9WMX2 2420-2992): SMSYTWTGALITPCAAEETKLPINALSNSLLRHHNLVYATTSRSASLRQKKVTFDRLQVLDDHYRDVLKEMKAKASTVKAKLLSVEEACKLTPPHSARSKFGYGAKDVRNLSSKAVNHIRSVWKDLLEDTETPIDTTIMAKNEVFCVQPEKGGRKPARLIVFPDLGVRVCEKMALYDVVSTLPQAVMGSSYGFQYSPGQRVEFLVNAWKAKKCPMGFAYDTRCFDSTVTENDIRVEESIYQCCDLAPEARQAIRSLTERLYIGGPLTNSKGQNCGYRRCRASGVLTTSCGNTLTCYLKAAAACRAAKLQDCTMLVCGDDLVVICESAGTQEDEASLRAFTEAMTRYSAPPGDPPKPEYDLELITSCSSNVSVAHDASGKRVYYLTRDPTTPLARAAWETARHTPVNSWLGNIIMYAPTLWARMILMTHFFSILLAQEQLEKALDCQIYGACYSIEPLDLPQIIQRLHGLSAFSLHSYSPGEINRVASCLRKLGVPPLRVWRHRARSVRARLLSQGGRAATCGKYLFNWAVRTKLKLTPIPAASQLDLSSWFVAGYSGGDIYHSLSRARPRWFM
Description: HCV NS5B RdRp cloning, expression, and purification. The cDNA encoding the NS5B protein of HCV, genotype 1b, was cloned into the pET21a expression vector. The protein was expressed with an 18 amino acid C-terminal truncation to enhance the solubility. The E. coli competent cell line BL21(DE3) was used for expression of the protein. Cultures were grown at 37° C. for ˜4 hours until the cultures reached an optical density of 2.0 at 600 nm. The cultures were cooled to 20° C. and induced with 1 mM IPTG. Fresh ampicillin was added to a final concentration of 50 μg/ml and the cells were grown overnight at 20° C.
Cell pellets (3 L) were lysed for purification to yield 15-24 mgs of purified NS5B. The lysis buffer consisted of 20 mM Tris-HCl, pH 7.4, 500 mM NaCl, 0.5% triton X-100, 1 mM DTT, 1 mM EDTA, 20% glycerol, 0.5 mg/ml lysozyme, 10 mM MgCl2, 15 μg/ml deoxyribonuclease I, and Complete TM protease inhibitor tablets (Roche). After addition of the lysis buffer, frozen cell pellets were resuspended using a tissue homogenizer. To reduce the viscosity of the sample, aliquots of the lysate were sonicated on ice using a microtip attached to a Branson sonicator. The sonicated lysate was centrifuged at 100,000×g for 1 hr at 4° C. and filtered through a 0.2 μm filter unit (Corning).
The protein was purified using three sequential chromatography steps: Heparin sepharose CL-6B, polyU sepharose 4B, and Hitrap SP sepharose (Pharmacia). The chromatography buffers were identical to the lysis buffer but contained no lysozyme, deoxyribonuclease I, MgCl2 or protease inhibitor and the NaCl concentration of the buffer was adjusted according to the requirements for charging the protein onto the column. Each column was eluted with a NaCl gradient which varied in length from 5-50 column volumes depending on the column type. After the final chromatography step, the resulting purity of the enzyme is >90% based on SDS-PAGE analysis. The enzyme was aliquoted and stored at −80° C.
Standard HCV NS5B RdRp enzyme assay. HCV RdRp genotype 1b assays were run in a final volume of 60 μl in 96 well plates (Costar 3912). The assay buffer is composed of 20 mM Hepes, pH 7.5, 2.5 mM KCl, 2.5 mM MgCl2, 1 mM DTT, 1.6 U RNAse inhibitor (Promega N2515), 0.1 mg/ml BSA (Promega R3961), and 2% glycerol. All compounds were serially diluted (3-fold) in DMSO and diluted further in water such that the final concentration of DMSO in the assay was 2%. HCV RdRp genotype 1b enzyme was used at a final concentration of 28 nM. A polyA template was used at 6 nM, and a biotinylated oligo-dT12 primer was used at 180 nM final concentration. Template was obtained commercially (Amersham 27-4110). Biotinylated primer was prepared by Sigma Genosys. 3H-UTP was used at 0.6 μCi (0.29 μM total UTP). Reactions were initiated by the addition of enzyme, incubated at 30° C. for 60 min, and stopped by adding 25 μl of 50 mM EDTA containing SPA beads (4 μg/μl, Amersham RPNQ 0007). Plates were read on a Packard Top Count NXT after >1 hr incubation at room temperature.
Modified HCV NS5B RdRp enzyme assay. A modified enzyme assay was performed essentially as described for the standard enzyme assay except for the following: The biotinylated oligo dT12 primer was precaptured on streptavidin-coated SPA beads by mixing primer and beads in assay buffer and incubating at room temperature for one hour. Unbound primer was removed after centrifugation. The primer-bound beads were resuspended in 20 mM Hepes buffer, pH 7.5 and used in the assay at final concentrations of 20 nM primer and 0.67 μg/μl beads. Order of addition in the assay: enzyme (14 nM) was added to diluted compound followed by the addition of a mixture of template (0.2 nM), 3H-UTP (0.6 μCi, 0.29 μM), and primer-bound beads, to initiate the reaction; concentrations given are final. Reactions were allowed to proceed for 4 hours at 30° C.
IC50 values for compounds were determined using seven different [I]. […]

SMILES	EC50 (HCV replicon cells; Hepatitis C virus)	IC50 [1]	EC50 (HCV replicon cells; Hepatitis C virus, FRET assay, read-out: EC50)	EC50 (HCV replicon cells; FRET assay)
COc1ccc2c(c1)C1CC1(C(=O)N1CC(C)(O)C1)Cn1c-2c(C2CCCCC2)c2ccc(C(=O)NS(=O)(=O)N(C)C)cc21 (stereo not shown)	1 to 500 nM	< 20 nM	–	–
COc1ccc2c(c1)C1CC1(C(=O)N1CC(O)(c3ccccc3)C1)Cn1c-2c(C2CCCCC2)c2ccc(C(=O)NS(=O)(=O)N(C)C)cc21 (stereo not shown)	1 to 500 nM	1 to 500 nM	–	–
COc1ccc2c(c1)C1CC1(C(=O)N1CC(O)(c3ccc(F)cc3)C1)Cn1c-2c(C2CCCCC2)c2ccc(C(=O)NS(=O)(=O)N(C)C)cc21 (stereo not shown)	1 to 500 nM	1 to 500 nM	–	–
COc1ccc2c(c1)C1CC1(C(=O)N1CC(O)(C(C)C)C1)Cn1c-2c(C2CCCCC2)c2ccc(C(=O)NS(=O)(=O)N(C)C)cc21 (stereo not shown)	1 to 500 nM	1 to 500 nM	–	–
COc1ccc2c(c1)C1CC1(C(=O)N1CC(O)C1)Cn1c-2c(C2CCCCC2)c2ccc(C(=O)NS(=O)(=O)C3CC3)cc21 (stereo not shown) [drawing 16]	–	1 to 500 nM	1 to 500 nM	–
COc1ccc2c(c1)C1CC1(C(=O)N1CC(O)C1)Cn1c-2c(C2CCCCC2)c2ccc(C(=O)NS(=O)(=O)N(C)C)cc21 (stereo not shown) [drawing 17]	1 to 500 nM	1 to 500 nM	–	–
COc1ccc2c(c1)C1CC1(C(=O)N1CC(O)(C3CC3)C1)Cn1c-2c(C2CCCCC2)c2ccc(C(=O)NS(=O)(=O)N(C)C)cc21 (stereo not shown) [drawing 21]	1 to 500 nM	1 to 500 nM	–	–
COc1ccc2c(c1)C1CC1(C(=O)N1CC(O)(C(F)(F)F)C1)Cn1c-2c(C2CCCCC2)c2ccc(C(=O)NS(=O)(=O)N(C)C)cc21 (stereo not shown) [drawing 23]	1 to 500 nM	1 to 500 nM	–	–
COc1ccc2c(c1)C1CC1(C(=O)N1CC(O)(C3CC3)C1)Cn1c-2c(C2CCCCC2)c2ccc(C(=O)NS(=O)(=O)N(C)C)cc21 (stereo not shown) [drawing 24]	–	1 to 500 nM	–	1 to 500 nM
COc1ccc2c(c1)C1CC1(C(=O)N1CC(O)(C(F)(F)F)C1)Cn1c-2c(C2CCCCC2)c2ccc(C(=O)NS(=O)(=O)N(C)C)cc21 (stereo not shown) [drawing 25]	–	1 to 500 nM	–	1 to 500 nM
COc1ccc2c(c1)C1CC1(C(=O)N1CC(O)C1)Cn1c-2c(C2CCCCC2)c2ccc(C(=O)NS(=O)(=O)C3CC3)cc21 (stereo not shown) [drawing 27]	–	1 to 500 nM	–	–
COc1ccc2c(c1)C1CC1(C(=O)N1CC(O)C1)Cn1c-2c(C2CCCCC2)c2ccc(C(=O)NS(=O)(=O)N(C)C)cc21 (stereo not shown) [drawing 28]	–	1 to 500 nM	–	–
